Literature values as cited in US7771760B2, “Oils of capsaicinoids and methods of making and using the same” (NeurogesX, Inc., priority 2005, dated 2010).

## COc1cc(CNC(=O)CCCC/C=C/C(C)C)ccc1O [capsaicin]
benzene, alcohol, ketone, ether and paraffin oils
  solubility in organic solvents: soluble
Cold water
  solubility in cold water: sparingly soluble
